These are literature values, as cited in patent US7309799B2 (Collegium Pharmaceutical, Inc., priority 2004, dated 2007).

SMILES strings stand for the structures.

The target of one data set is reuptake of serotonin (Homo sapiens, UniProt P31645). As to conditions: compared with noradrenaline reuptake.
The test system of data set [1] is SNL-induced hypersensitivity. As to conditions: rats; for reversal of mechanical hypersensitivity: SNL.
Data set [2] concerns neurotransmitter receptor.
The test system of the next data set is gastric mucosa. The following applies: preclinical studies.

reuptake of serotonin, sequence (P31645 whole entry): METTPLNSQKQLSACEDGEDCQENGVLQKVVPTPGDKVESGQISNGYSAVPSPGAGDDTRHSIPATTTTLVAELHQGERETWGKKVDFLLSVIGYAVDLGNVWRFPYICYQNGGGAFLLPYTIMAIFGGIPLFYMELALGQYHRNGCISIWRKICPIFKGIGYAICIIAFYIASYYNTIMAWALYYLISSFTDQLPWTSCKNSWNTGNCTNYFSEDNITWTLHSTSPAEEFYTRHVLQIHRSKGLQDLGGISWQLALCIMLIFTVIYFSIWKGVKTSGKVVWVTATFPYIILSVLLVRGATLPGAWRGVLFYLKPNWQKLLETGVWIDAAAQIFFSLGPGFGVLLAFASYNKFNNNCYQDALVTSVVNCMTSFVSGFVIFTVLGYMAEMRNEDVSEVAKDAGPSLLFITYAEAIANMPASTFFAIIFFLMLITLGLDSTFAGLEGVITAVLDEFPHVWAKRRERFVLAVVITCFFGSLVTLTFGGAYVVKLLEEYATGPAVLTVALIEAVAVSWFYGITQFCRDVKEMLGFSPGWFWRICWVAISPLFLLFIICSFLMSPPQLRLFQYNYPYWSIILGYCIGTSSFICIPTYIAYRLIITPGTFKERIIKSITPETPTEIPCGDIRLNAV

In the case of `CCN(CC)C(=O)[C@@]1(c2ccccc2)C[C@H]1CN.Cl` (racemic) [milnacipran, racemic cis-2-(aminomethyl)-N,N-diethyl-1-phenyl-cyclopropanecarboxamide], the “potency of inhibition of the reuptake of serotonin” value on reuptake of serotonin is given as “essentially equal potency”. For the same compound, in data set [1], the “effectiveness in reversing SNL induced thermal hypersensitivity compared with duloxetine” value is reported as “more effective”, the “reversal of SNL-induced thermal hypersensitivity” value is listed as “both reversed” and the “reversal of mechanical hypersensitivity” value was “Neither milnacipran nor duloxetine reversed”. Also, the “affinity for any neurotransmitter receptor studied” value in data set [2] is “no detectable affinity”. Moreover, where the note is “database of over 3300 patients”, the “general and cardiovascular tolerability versus TCAs” value is listed as “superior to those of the tricyclic antidepressants (TCAs)”. Besides, under “human, in vivo”, the “incidence of dysuria versus SSRIs” value was “higher incidence of dysuria” and the “tolerability versus SSRIs” value is “comparable to that of the SSRIs”. For the same compound, the “nausea and vomiting (dose-limiting gastrointestinal disturbances)” value (oral administration) was “increasing frequency after doses of 100 mg or above”. Moreover, the “effect on gastric mucosa” value in the data set on gastric mucosa was “direct irritant effect”.

Regarding `CNCC[C@H](Oc1cccc2ccccc12)c1cccs1` [duloxetine], in data set [1], the “reversal of SNL-induced thermal hypersensitivity” value was “both reversed” and the “reversal of mechanical hypersensitivity” value was “Neither milnacipran nor duloxetine reversed”.
